Test results as given in PubChem BioAssay AID624445 (Broad Institute, 2012).
Inconclusive results are not listed. Active and inactive are the calls of the source.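 Rule for the calls: active = fitted curve drops past -35% activity change at a concentration under twice the top valid tested dose; inconclusive = no clear call, values can overlap the other calls; inactive = the rest, including effects in the wrong direction.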

Tested on: 26S proteasome chymotrypsin-like activity (human)
Test: cellular 26S proteasome inhibition check – cell-based, U2OS, Proteasome-Glo luminescence, dry powder, set 2, mechanism study for HSF1 activator project, dose response (AID 624445)
Conditions: for activity change, negative = inhibition: at 38 µM (top of the series)

SMILES	activity change, negative = inhibition	AC35 [µM]
Cc1ccccc1CSc1nnc(N)s1	-25.3% (inactive)	–
O=C(Nc1nc(SCc2ccccc2)ns1)C1CCC1	–	30.4
O=C(Nc1nc(SCc2ccccc2)ns1)C1CC=CCC1 (stereo unspecified)	-30.5% (inactive)	–
Cc1ccccc1CSc1n[nH]c(N)n1	9.01% (inactive)	–
Nc1nc(S(=O)(=O)Cc2ccccc2)ns1	-17.1% (inactive)	–

Other lines, results leading:

activity change, negative = inhibition	AC35 [µM]	SMILES
–	35.2	Cc1cccc(CSc2nsc(N)n2)c1
2.27% (inactive)	–	Nc1nc(SCc2ccc(Cl)cc2Cl)ns1
-21.8% (inactive)	–	Cc1ccccc1CSc1nsc(N)n1
-32.9% (inactive)	–	Nc1nc(SCc2ccc(F)cc2)ns1
-20.5% (inactive)	–	Nc1nc(SCc2ccccc2Cl)ns1
–	37.2	Nc1nc(SCc2ccccc2)ns1
